Structures are written as SMILES.

In the test the test system is LPS induced TNF release. As to the kind of experiment: Lipopolysaccharide-Activated THP1 Cell TNF Production Assay. It counts as cell-based. Conditions: Homo sapiens, THP-1, THP1 cells, 3 h at 37° C., secreted TNF-α read by ECL. As for the experimental part: Lipopolysaccharide-Activated THP1 Cell TNF Production Assay
THP1 cells are resuspended in fresh THP1 media (RPMI 1640, 10% heat-inactivated FBS, 1XPGS, 1XNEAA, plus 30 μM βME) at a concentration of 1E6/mL. One hundred microliters of cells per well are plated in a polystyrene 96-well tissue culture. One microgram per mL of bacterial LPS is prepared in THP1 media and is transferred to the wells. Test compounds are dissolved in 100% DMSO and are serially diluted 3 fold in a polypropylene 96-well microtiter plate (drug plate). HI control and LO control wells contain only DMSO. One microliter of test compound from the drug plate followed by 10 μL of LPS are transferred to the cell plate. The treated cells are induced to synthesize and secrete TNF-α at 37° C. for 3 h. Forty microliters of conditioned media are transferred to a 96-well polypropylene plate containing 110 μL of ECL buffer (50 mM Tris-HCl pH 8.0, 100 mM NaCl, 0.05% Tween 20, 0.05% NaN3 and 1% FBS) supplemented with 0.44 nM MAB610 monoclonal Ab (R&D Systems), 0.34 nM ruthenylated AF210NA polyclonal Ab (R&D Systems) and 44 μg/mL sheep anti-mouse M280 Dynabeads (Dynal). After a 2 h incubation at room temperature with shaking, the reaction is read on the ECL M8 Instrument (IGEN Inc.). A low voltage is applied to the ruthenylated TNF-α immune complexes, which in the presence of TPA (the active component in Origlo), results in a cyclical redox reaction generating light at […]. The amount of secreted TNF-α in the presence of compound compared with that in the presence of DMSO vehicle alone (HI control) is calculated using the formula: % control (POC)=(cpd−average LO)/(average HI−average LO)*100. Data (consisting of POC and inhibitor concentration in μM) is fitted to a 4-parameter equation (y=A+((B−A)/(1+((x/C)^D))), where A is the minimum y (POC) value, B is the maximum y (POC), C is the x (cpd concentration) at the point of inflection and D is the slope factor) using a Levenburg-Marquardt non-linear regression algorithm.

As usually defined, the IC50 is the concentration that gives 50% inhibition. Read a low IC50 as higher potency. `Cc1c(C2CCN(C(=O)OCc3ccccc3)CC2)nnc(-c2cccc(C(F)(F)F)c2)c1-c1ccnc(NC(C)c2ccccc2)n1` (stereo not drawn) [4-[4-Methyl-5-[2-(1-phenyl-ethylamino)-pyrimidin-4-yl]-6-(3-trifluoromethylphenyl)-pyridazin-3-yl]-piperidine-1-carboxylic acid benzyl ester]: the IC50 was no more than 20 µM.

`Cc1c(C2CCNCC2)nnc(-c2cccc(C(F)(F)F)c2)c1-c1ccnc(NC(C)c2ccccc2)n1` (stereo not drawn) [{4-[5-Methyl-6-piperidin-4-yl-3-(3-trifluoromethyl-phenyl)-pyridazin-4-yl]-pyrimidin-2-yl}-(1-phenyl-ethyl)-amine]: the IC50 was no more than 20 µM.

`Cc1c(C2CCN(C(=O)[C@@H](C)O)CC2)nnc(-c2cccc(C(F)(F)F)c2)c1-c1ccnc(NC(C)c2ccccc2)n1` (stereo in doubt) [2-Hydroxy-1-{4-[4-methyl-5-[2-(1-phenyl-ethylamino)-pyrimidin-4-yl]-6-(3-trifluoromethyl-phenyl)-pyridazin-3-yl]-piperidin-1-yl}-propan-1-one]: the IC50 was no more than 20 µM.

Source of the values: patent US20040254178A1, “Substituted heterocyclic compounds and methods of use” (Amgen Inc., priority 2003, published 2004).
